Values quoted from earlier work as cited in patent publication US10588912B2, “Methods of reducing mammographic breast density and/or breast cancer risk” (Havah Therapeutics Pty Ltd., priority 2014, dated 2020).

Details: oral absorption

C[C@]12CC[C@H]3[C@@H](CCC4=CC(=O)CC[C@@]43C)[C@@H]1CC[C@@H]2O [testosterone]
fraction broken down in the intestines by aromatase and other metabolic pathways: approximately 85%
